{"source": "patent US20090054414A1", "about": "“Rufinamide for the Treatment of Post-Traumatic Stress Disorder” (SYNOSIA THERAPEUTICS, priority 2007, published 2009)", "key": {"male OF-1 mice": {"tested_on": "male OF-1 mice", "assay": "half-enclosed platform (HEP) test", "format": "in vivo, mouse", "conditions": "0.32/1/3.2 and 10 mg/kg p.o., 1 hr before testing", "source_text": "Rufinamide and carbamazepine were compared in the half-enclosed platform (HEP) test. The test determines how drugs affect the exploratory behaviour of a mouse placed upon a novel, half-enclosed platform and gives information as to whether a drug is a stimulant, depressant or disinhibitory as with, for example the benzodiazepines which increase exploration of the platform. It is also useful for determining duration of action and dose-findings studies. The HEP is a further development of the simple elevated platform used by Kaesermann to assess anxiolytic properties of drugs (Ref. Käsermann H. P. (1986) Psychopharmacol. 89:31-37). In this study carbamazepine and rufinamide were tested in the same dose ranges i.e. 0.32/1/3.2 and 10 mg/kg p.o. of each were given to male OF-1 mice 1 hr before testing.\nThe ethogram used consists of 9 elements of exploratory behaviour two of which involve static postures i.e. immobility and stretched attend posture, the latter being an ambivalent element indicative of approach-avoidance conflict. These elements are immediately spontaneous and are not induced by either training or punishment procedures. Upright postures which are posturally demanding are useful to detect muscle relaxation e.g. rearing (FIG. 10)."}, "Male OF1/IC mice": {"tested_on": "Male OF1/IC mice", "assay": "modified stress-induced hyperthermia (SIH) test", "format": "in vivo, mouse", "description": "Rufinamide was tested in the modified stress-induced model of anxiety. The stress-induced hyperthermia test in mice is a paradigm developed several years ago to model the expression of autonomic hyperactivity in anxiety (Lecci A, Borsini F, Volterra G, Meli A. (1990) Pharmacological validation of a novel model of anticipatory anxiety in mice. Psychopharmacology; 101:255-61.; Spooren W P, Schoeffter P, Gasparini F, Kuhn R, Gentsch C. (2002) Pharmacological and endocrinological characterisation of stress-induced hyperthermia in singly housed mice using classical and candidate anxiolytics (LY314582, MPEP and NKP608). Eur J Pharmacol; 435:161-70.;Zethof T J J, van der Heyden J A M, Tolboom J B M, Olivier B (1994) Stress-induced hyperthermia in mice: a methodological study. Phys. Behav. 55:109-115.). […] Pharmacol Biochem Behav 72:179-188.\nMale OF1/IC mice (MA205 Tiger code) were obtained several days prior to behavioural testing from Iffa Credo (L'Arbresle, France; 18-20 g) and housed in groups of 15 animals per cage (macrolon cages 42H26H15 cm, Type 4). The animals were individually housed (macrolon cage: 26H21H14 cm, Type 2) 24 h before testing. The day preceding the experiment, all cages were transferred to the testing room—and background noise (radio) was used during the light cycle. Both the animal room and the laboratory were temperature controlled and equipped with artificial illumination (L12:D12; lights on 06:00). Mice always had ad libitum access to water and food (Ecosan, Eberle Nafag A G, Gossau, Schweiz).\nThe test procedure for the modified stress-induced hyperthermia was adapted from van der Heyden et al. (1997). Rectal temperature was measured in each mouse twice, i.e. at t=0 min (T1) and t=+15 min (T2). The difference in temperature (T2-T1) was considered to reflect the stress-induced hyperthermia (SIH). […] In addition, a comparison between T1 in vehicle-treated mice and in animals treated with a given dose of a test-compound was used, to measure whether a test-compound affected body temperature alone.\nRectal temperature was measured to the nearest 0.1° C. by an ELLAB instruments (Copenhagen, Denmark) thermometer Model DM 852 by inserting a lubricated thermistor probe model PRA-22002-A (ELLAB, Copenhagen, Denmark) (2.2 mm diameter) 20 mm into the rectum; the mouse was hand held at the base of the tail during this determination and the thermistor probe was left in place for 15 s.\nAll drugs were made up fresh and dissolved in vehicle (0.5% methylcellulose) and administered per os (p.o.) in a volume of 10 ml/kg.\nAll data was analysed using a one-way analysis of variance (ANOVA) followed where appropriate by Dunnett test of multiple comparisons. The level of significance was set at p<0.05."}}, "data": [{"smiles": "NC(=O)c1cn(Cc2c(F)cccc2F)nn1", "note": "[rufinamide, 1-(2,6-difluorobenzyl)-1H-1,2,3-triazole-4-carboxamide]", "values": [{"measurement": "changes in durations of exploratory and stationary elements", "setting": "male OF-1 mice", "result": "followed suit but rarely attained statistical significance"}, {"measurement": "duration of head raising in the open half", "setting": "male OF-1 mice", "result": "increased"}, {"measurement": "duration of inactivity (sta) in the enclosed half", "setting": "male OF-1 mice", "result": "shortened"}, {"measurement": "frequencies of stationary elements (Sta: sitting still, inactivity)", "setting": "male OF-1 mice", "result": "decreased in a significant manner"}, {"measurement": "exploratory elements stretched attend posture (sap), head raising (hu) and forward locomotion (go), frequency", "setting": "male OF-1 mice; dose-related", "result": "significantly increased"}, {"measurement": "body temperature T2 (15 min after stress)", "setting": "Male OF1/IC mice; first experiment, rufinamide 100 mg/kg p.o., p<0.001", "result": "significant lower body temperature than control animals"}, {"measurement": "SIH response (T2-T1)", "setting": "Male OF1/IC mice; first experiment, rufinamide 3, 10, 30, 100 mg/kg p.o., 60 min before T1, n=12", "result": "only the positive control CDZ (10 mg/kg, p.o.) reversed significantly"}, {"measurement": "dose eliciting a robust reversal of the physiological response to an acute stressor", "setting": "Male OF1/IC mice; p.o.", "result": "> 30", "unit": "mg/kg"}, {"measurement": "doses needed to induce robust anxiolytic-like effects in the SIH paradigm", "setting": "Male OF1/IC mice; p.o.", "result": "100 to 300", "unit": "mg/kg"}, {"measurement": "SIH response (T2-T1)", "setting": "Male OF1/IC mice; pooled data of all 3 experiments, rufinamide 30, 50, 100, 200 and 300 mg/kg p.o.", "result": "significantly attenuated"}, {"measurement": "body temperature T2 (15 min after stress)", "setting": "Male OF1/IC mice; pooled data, rufinamide 25, 50, 100, 200 and 300 mg/kg", "result": "significant lower body temperature than control animals"}, {"measurement": "SIH response (T2-T1)", "setting": "Male OF1/IC mice; second experiment (0.3, 3, 30, 300 mg/kg tested), rufinamide 0.3, 30 and 300 mg/kg p.o. (p<0.05, p<0.01, p<0.001)", "result": "significantly attenuated"}, {"measurement": "body temperature T2 (15 min after stress)", "setting": "Male OF1/IC mice; second experiment, rufinamide at the highest doses (30 and 100 mg/kg, p.o.)", "result": "significant lower body temperature than control animals"}, {"measurement": "SIH response (T2-T1)", "setting": "Male OF1/IC mice; third experiment (25, 50, 100, 200 mg/kg tested), rufinamide 50 (p<0.05), 100 and 200 mg/kg p.o. (p<0.001)", "result": "significantly reduced"}, {"measurement": "body temperature T2 (15 min after stress)", "setting": "Male OF1/IC mice; third experiment, rufinamide 100 and 200 mg/kg p.o.", "result": "significant lower body temperature than control animals"}]}]}
